According to PubChem BioAssay AID1996:
Converted amounts (≈) assume the structure as drawn. Residues, ends and D or L forms follow the SMILES beside them. *: point of attachment. Cbz = O=C(OCc1ccccc1)*

Conditions: buffer; pH 7.4; 200.0 µM

| Compound | solubility kinetic [µg/mL] |
| --- | --- |
| CN(CC(=O)NCCc1ccc(S(N)(=O)=O)cc1)CC(=O)Nc1ccc(Cl)cc1 | > 65.8 |
| Cc1cc(-c2ccccc2)nc(SCc2ccc(C(=O)O)cc2)n1 | 43.5 (≈ 129 µM) |
| CN(C)S(=O)(=O)c1cccc(NC(=O)c2ccc(N3CCCC3=O)cc2)c1 | 5.7 (≈ 14.7 µM) |
| Cc1ccc(S(=O)(=O)Nc2ccc3nc(C)sc3c2)c(C)c1 | 30 (≈ 90.2 µM) |
| CC1=CC(C)(C)NC(=O)N1c1ccc(C)cc1 | > 34.5 |
| Cc1nc(N)[nH]c(=O)c1Oc1cccc(C(F)(F)F)c1 | 35.6 (≈ 125 µM) |
| CC[C@H](C)[C@H](NC(=O)c1ccc(Cl)cc1)C(=O)OCC(=O)c1c(N)n(C)c(=O)n(C)c1=O | 27.7 (≈ 59.6 µM) |
| CN1/C(=C\C=O)C(C)(C)c2ccccc21 | > 30.2 |
| Cc1onc(-c2c(Cl)cccc2Cl)c1C(=O)N=C(N)N1CCCC1 | 12 (≈ 32.7 µM) |
| CCn1c(SCC(=O)NC(C)(C)C)nnc1-c1ccncc1 | > 47.9 |
| Cc1cccc(C)c1NC1=NCCCCC1 | > 32.4 |
| O=C(CSCc1ccc(Br)cc1)N1CCCC1 | > 47.1 |
| COc1ccc(C)cc1N(CC(=O)N1CCOCC1)S(C)(=O)=O | > 51.4 |
| O=C1CC(C(=O)N2CCN(c3ccccc3)CC2)CN1Cc1ccccc1 (stereo unspecified) | > 54.5 |
| OCC1(Cc2ccccc2)CCCN(C2CCCC2)C1 (stereo unspecified) | 34.1 (≈ 125 µM) |
| O=C(NCCc1ccccc1)c1ccc2[nH]c(=O)c(=O)[nH]c2c1 | > 46.4 |
| Cn1cc(S(=O)(=O)N2CCNCC2)cc1C(N)=O | > 40.8 |
| CC(C)C[C@H](NC(=O)Nc1ccc2c(c1)OCCO2)C(=O)O | 41.1 (≈ 133 µM) |
| CN1c2ccsc2C(=O)/C(=C\Nc2cccc(C(F)(F)F)c2)S1(=O)=O | < 0.4 |
| COc1ccc(NC(=O)CN(C)C(=O)c2ccc3ccccc3n2)cc1 | > 52.4 |
| O=C(COC(=O)c1cc(S(=O)(=O)N2CCCC2)ccc1O)Nc1ccc(F)cc1F | > 66.1 |
| COC(=O)C(C)NC(=O)C1CCCN1C(=O)CNC(=O)OCc1ccccc1 (stereo not drawn) (Cbz-Gly-Pro-Ala-OMe; configuration not given here) | > 58.7 |
| O=C(Nc1ccc(NC(=O)c2ccccc2Cl)cc1)c1cccnc1 | 3 (≈ 8.53 µM) |
| O=C(/C=C/c1ccccc1)NCCCNC(=O)/C=C/c1ccccc1 | 5 (≈ 15 µM) |

| Compound | solubility kinetic [µg/mL] |
| --- | --- |
| COc1ccc(NC(=O)C(C)SCc2ccccc2)cc1 (stereo unspecified) | 40.9 (≈ 136 µM) |
| COCCNC(=O)C(OC(=O)C1=Cc2ccccc2OC1)C(C)C (stereo unspecified) | > 50 |
| COc1ccc(C)c2sc(N(CCN(C)C)C(=O)c3ccc4ccccc4c3)nc12.Cl | 30.8 |
| Cc1cc(=O)[nH]c2ccc(S(=O)(=O)Nc3ccc(O)cc3)cc12 | > 49.6 |
| Cc1nc2oc3ccccc3c(=O)c2cc1C(=O)O | > 38.3 |
| COc1ccc(C(=O)CSc2nc(C)cc(C)n2)cc1C | 17.4 (≈ 57.5 µM) |
| CCOc1ccc(NC2=NCCCS2)cc1 | > 35.4 |
| O=C(COC(=O)/C=C/c1ccccc1Cl)NC(=O)NC1CCCC1 | 8.2 (≈ 23.4 µM) |
| COc1ccc(C(=O)OCC(=O)NCC2CCCO2)c(F)c1 (stereo unspecified) | > 46.7 |
| Cc1csc(NC(=O)Cc2c(F)cccc2Cl)n1 | 36.4 (≈ 128 µM) |
| O=C(CCc1ccc(S(=O)(=O)N2CCOCC2)cc1)Nc1ccc(F)c(F)c1F | 44.6 (≈ 104 µM) |
| O=C(CC1CCCC1)Nc1cccc(Br)c1 | 18.1 (≈ 64.1 µM) |
| N#Cc1ccccc1S(=O)(=O)Nc1ccc2c(c1)OCCO2 | > 47.4 |
| O=C(NC1=NCCS1)c1cccc(F)c1 | > 33.6 |
| CC(C)C(NC(=O)c1ccccc1F)C(=O)NCC(c1ccco1)N1CCCCC1 (stereo unspecified) | > 62.3 |
| O=C(C[n+]1cccc(O)c1)NCc1ccc(Cl)cc1.[Cl-] | > 47 |
| COc1ccc(Cc2nc3ccccc3[nH]c2=O)cc1 | 4.7 (≈ 17.6 µM) |
| Nc1ccc(S(=O)(=O)Nc2nc3ccccc3o2)cc1 | > 43.4 |
| NS(=O)(=O)c1ccc(CCNC(=O)C2CCN(C(=O)Nc3ccccc3)CC2)cc1 | 63.9 (≈ 148 µM) |
| Cc1ccc(NC(=O)C(=O)NCCc2c[nH]c3ccccc23)c(C)c1 | 0.4 (≈ 1.19 µM) |
| CC(C)[C@@H](N)C(=O)N/N=C/c1ccc2nccnc2c1.Cl | > 46.2 |
| O=C(Nc1ccc2cccnc2c1)c1ccc(Br)cc1 | 0.4 (≈ 1.22 µM) |
| N#Cc1ccc(CC(C(=O)O)N2Cc3ccccc3C2=O)cc1 (stereo unspecified) | > 45.9 |
| COc1cccc(NC(=O)COC(=O)CNC(=O)C2CCCCC2)c1 | > 52.3 |

| Compound | solubility kinetic [µg/mL] |
| --- | --- |
| CC(C)N1CC(C(=O)Nc2ccc(F)c(Cl)c2)CC1=O (stereo unspecified) | > 44.8 |
| COc1ccc(CCNC(=S)Nc2ccccc2)cc1 | 41.1 (≈ 144 µM) |
| Cc1ccc2c(c1)sc(=NC(=O)C1CC1)n2C | 15.5 (≈ 62.9 µM) |
| COc1ccc(NC(=O)C(c2ccc(Cl)cc2)C(C)C)cn1 (stereo unspecified) | 13.5 (≈ 42.3 µM) |
| CC1CN(c2nc(Nc3ccccc3)nc(N)c2[N+](=O)[O-])CC(C)O1 (stereo unspecified) | 48.1 (≈ 140 µM) |
| COc1ccccc1NC(=O)NC1(C(=O)N2CCCCC2)CCCCC1 | 10 (≈ 27.8 µM) |
| Cc1ccc(C(=O)Nc2ccccc2Cl)cc1 | 21 (≈ 85.5 µM) |
| Cc1ccc(C)c(CSCc2nc3ccccc3[nH]2)c1 | 20.6 (≈ 72.9 µM) |
| Cc1cnc(C(=O)NCc2ccc(Cl)cc2Cl)cn1 | 7.7 (≈ 26 µM) |
| Cc1cc(C)c2c(CN3CCOCC3)cc(=O)oc2c1C | 26.5 (≈ 92.2 µM) |
| Cc1cccc(C(=O)OCC(=O)Nc2ccc(F)cc2)c1 | 6.3 (≈ 21.9 µM) |
| Cc1ccccc1Sc1ccc(N)cn1 | 31.4 (≈ 145 µM) |
| O=C(Nc1ccc(OC(F)(F)F)cc1)c1ccc2nccnc2c1 | 11.4 (≈ 34.2 µM) |
| CCOc1ccc(NC(=O)CN2C(=O)COc3ccccc32)cc1 | 5.1 (≈ 15.6 µM) |
| Cc1ccc(NC(=O)Cn2cc([N+](=O)[O-])nc2C)cc1C | 14.8 (≈ 51.3 µM) |
| CCOC(=O)C1Sc2ccccc2NC1=O (stereo unspecified) | > 35.6 |
| Cc1cc(C)c(OCC(=O)N2CC=C(c3ccccc3)CC2)c(C)c1 | 13 (≈ 38.8 µM) |
| Cc1ccc(/C=C/c2ccc3cccc(O)c3n2)s1 | 1.4 (≈ 5.24 µM) |
| NC(=S)Nc1ccc(Cl)cc1Cl | 32.9 (≈ 149 µM) |
| CC(C)N1CCN(Cc2cc3c(cc2Cl)OCO3)CC1CCO (stereo unspecified) | 39.9 (≈ 117 µM) |
| CC(C(=O)Nc1ccc(S(=O)(=O)N2CCCC2)cc1)N1CCN(c2ccccc2O)CC1 (stereo unspecified) | 12.6 (≈ 27.5 µM) |
| CC(NC(=O)COc1ccccc1)C(=O)N1CCN(c2ccc(F)cc2)CC1 (stereo unspecified) | > 57.8 |
| O=C(O)C(=O)Nc1nc(-c2ccc3c(c2)OCCO3)cs1 | > 45.9 |
| Cc1cc(=O)[nH]c2c(C)cc(S(=O)(=O)N3CCCCC3)cc12 | 2.6 (≈ 8.11 µM) |

| Compound | solubility kinetic [µg/mL] |
| --- | --- |
| N/C(=N\c1nc2ccccc2o1)NC(=O)c1cccc(Br)c1 | < 0.2 |
| COc1ccc2c(c1)c(C(=O)O)c(C)n2-c1ccc(Cl)cc1 | 15.2 (≈ 48.1 µM) |
| CC(=O)c1ccc(NC(=O)C2C3CCC(C3)C2C(=O)O)cc1 (stereo unspecified) | > 45.2 |
| O=C(c1ccc([N+](=O)[O-])cc1)N1CCN(c2ncccn2)CC1 | 46.3 (≈ 148 µM) |
| Cl.c1coc(C2=NCCc3ccccc32)c1 | 27.9 |
| CCOC(=O)Cn1nc(C)cc1NC(=O)c1ccncc1 | > 43.2 |
| COc1cc2ccccc2cc1C(=O)N1CCOCC1 | > 40.7 |
| O=C(CCn1ccnc1)Nc1nc2ccccc2[nH]1 | > 38.3 |
| Cc1ccc(NC(=O)CSc2ncccn2)cc1F | > 41.6 |
| CS(=O)(=O)c1ccc2nc(NC(=O)C3CC3)sc2c1 | 25.3 (≈ 85.4 µM) |
| O=C(NCc1ccc2c(c1)OCO2)C1CCCCC1 | > 39.2 |
| COC(=O)C(N)Cc1ccc(O)c(O)c1.Cl (stereo unspecified) | 24.4 |
| NC(=O)c1ccccc1NC(=O)CSC1=NCCS1 | > 44.3 |
| Cc1ccc2c(c1)C1C[N+](C)(CC(=O)c3ccc(Cl)cc3Cl)CCC1N2C(=O)c1ccc(F)cc1.[Cl-] (stereo unspecified) | > 82.2 |
| Cc1ccc(NC(=O)N2CCC(c3ccccc3)C2)cc1C (stereo unspecified) | 2.6 (≈ 8.83 µM) |
| O=C(Nc1ccc(O)cc1)c1ccccc1OCc1ccccc1 | < 0.7 |
| CCCS(=O)(=O)N1CCCC(C(=O)Oc2ccccc2Cl)C1 (stereo unspecified) | 45.6 (≈ 132 µM) |
| O=C(NC1C2CC3CC(C2)CC1C3)C1CCCCC1 (stereo unspecified) | 1.6 (≈ 6.12 µM) |
| COC(=O)c1c(C)[nH]c(C(=O)OCC(=O)c2c(N)n(CC(C)C)c(=O)n(C)c2=O)c1C | 14 (≈ 32.2 µM) |
| COc1ccc(OC)c(N2C(=O)CC(NNC(=O)c3ccc4c(c3)OCO4)C2=O)c1 (stereo unspecified) | > 62 |
| Cc1ccc(NS(=O)(=O)c2ccc(Cl)s2)nc1 | 33.6 (≈ 116 µM) |
| N#Cc1sc(NCc2cccc(Cl)c2)nc1Cl | 2.4 (≈ 8.45 µM) |
| CC(=O)c1c(C)[nH]c(C(=O)COC(=O)c2ccc(Cl)nc2)c1C | 3.9 (≈ 11.7 µM) |
| NC(=O)c1ccccc1OCC(=O)Nc1cccnc1Cl | > 45.9 |

| Compound | solubility kinetic [µg/mL] |
| --- | --- |
| CCOC(=O)Cc1csc(NS(=O)(=O)c2ccc(C(F)(F)F)cc2)n1 | > 59.2 |
| OC1(c2ccccc2)Cc2cccc[n+]2C1c1ccccc1.[Br-] (stereo unspecified) | > 55.2 |
| NS(=O)(=O)c1ccc(CCNC(=O)c2ccc3c(c2)OCO3)cc1 | > 52.3 |
| CCOc1ccccc1N1C(=O)CC(Sc2nccc(C)n2)C1=O (stereo unspecified) | > 51.5 |
| COc1ccc(CN2CC(C(=O)NCCC(C)C)CC2=O)cc1 (stereo unspecified) | > 47.8 |
| Cc1cccc(NC2=NCCCS2)c1 | > 30.9 |
| CN(CC(=O)Nc1ccc(Cl)c(C(F)(F)F)c1)C(=O)c1cnccn1 | 13.7 (≈ 36.8 µM) |
| NC(=O)c1ccccc1NC(=O)CN1CCCCCC1 | > 41.3 |
| CN1CC(C(=O)c2ccccc2)C(c2ccccc2)C1 (stereo unspecified) | > 39.8 |
| N#CCCN(C(=O)CN1c2cccc3cccc(c23)S1(=O)=O)c1ccccc1 | 15 (≈ 38.3 µM) |
| Cc1ccc(CNC(=O)c2ccc(OCC(C)C)cc2)n1C | 27.6 (≈ 91.9 µM) |
| COc1ccc(C(=O)ON=C2CCN(C)CC2)cc1.Cl | > 44.8 |
| Cc1cc(NC(=O)CSc2nc(C)c(C)c(=O)[nH]2)no1 | > 44.1 |
| Cc1cc2nc(/N=C(\N)NC(=O)C(C)C)nc(C)c2cc1C | 2.9 (≈ 9.69 µM) |
| COc1cc2ccccc2cc1C(=O)N1CCN(c2ccccn2)CC1 | > 52.1 |
| Cn1c(=O)n(C)c2cc(S(=O)(=O)N3CCN(c4ccccc4)CC3)ccc21 | 0.3 (≈ 0.776 µM) |
| Cc1ccc(NC(=O)CCc2ccc(C)o2)cc1 | 21.1 (≈ 86.7 µM) |
| CN(C)C(CNC(=O)c1cc(S(=O)(=O)N2CCOCC2)ccc1F)c1cccs1 (stereo unspecified) | > 66.2 |
| O=c1[nH]cc(S(=O)(=O)NCc2ccccc2)c(=O)[nH]1 | > 42.2 |
| COc1ccc(NC(=O)c2ccc(S(=O)(=O)N3CCOCC3)o2)cc1 | 10.7 (≈ 29.2 µM) |
